What is called half-life is the time needed for the level to fall by half in the phase considered. A higher half-life goes with slow decline. The term IC50 denotes the concentration at which inhibition is half-maximal.

Data set [1] can be described thus: Half life in human whole blood. The data set is classed as ADME, tissue-based.
Data set [2] in a line: Half life in cultured human keratinocytes. It counts as ADME, cell-based, Keratinocyte.
A further data set concerns the target T1, Glucocorticoid receptor (Homo sapiens, UniProt P04150).
T1 sequence (P04150 whole entry): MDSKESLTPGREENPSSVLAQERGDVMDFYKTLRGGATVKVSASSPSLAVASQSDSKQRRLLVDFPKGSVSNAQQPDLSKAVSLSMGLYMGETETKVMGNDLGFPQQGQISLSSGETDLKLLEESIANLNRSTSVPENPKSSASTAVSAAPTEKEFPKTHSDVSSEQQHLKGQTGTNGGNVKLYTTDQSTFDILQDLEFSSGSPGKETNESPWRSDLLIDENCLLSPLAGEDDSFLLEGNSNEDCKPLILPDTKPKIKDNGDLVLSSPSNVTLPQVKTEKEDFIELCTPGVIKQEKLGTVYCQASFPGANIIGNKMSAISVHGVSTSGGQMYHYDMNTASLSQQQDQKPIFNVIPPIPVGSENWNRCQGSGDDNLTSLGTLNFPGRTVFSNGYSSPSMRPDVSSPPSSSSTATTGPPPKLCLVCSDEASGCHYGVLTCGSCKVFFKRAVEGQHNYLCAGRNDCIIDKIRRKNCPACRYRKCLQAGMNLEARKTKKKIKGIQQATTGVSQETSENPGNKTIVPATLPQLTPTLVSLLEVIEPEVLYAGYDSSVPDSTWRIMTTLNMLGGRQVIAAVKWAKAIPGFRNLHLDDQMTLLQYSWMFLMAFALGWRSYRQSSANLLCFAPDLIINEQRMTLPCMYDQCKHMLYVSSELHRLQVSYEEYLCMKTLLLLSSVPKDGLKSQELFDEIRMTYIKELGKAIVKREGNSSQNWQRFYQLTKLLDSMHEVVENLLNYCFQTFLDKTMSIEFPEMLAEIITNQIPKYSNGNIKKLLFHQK
Description: Agonist activity at human glucocorticoid receptor in PBMC assessed as inhibition of LPS-induced TNFalpha release. It counts as tissue-based.

Data set [3] concerns the target T2, Glucocorticoid receptor (Homo sapiens) (UniProt P04150).
T2 sequence (whole entry): T1 sequence (P04150 whole entry)
The experiment in a line: Agonist activity at human glucocorticoid receptor assessed as inhibition of LPS-induced TNFalpha release in PBMC relative to control. The data set is classed as tissue-based.

Data set [4] is described as follows: Drug metabolism in human whole blood assessed as (3R)-3-(hydroxymethyl)-4-oxo-4-[(3S)-3-[[5-[(1R,2S)-1-(p-tolyl)-2-[(2,2,2-trifluoroacetyl)amino]propoxy]pyridine-2-carbonyl]amino]-1-piperidyl]butanoic acid metabolite formation. It counts as ADME, tissue-based.
Data set [5] is described as follows: Drug metabolism in human hepatocytes assessed as (3R)-3-(hydroxymethyl)-4-oxo-4-[(3S)-3-[[5-[(1R,2S)-1-(p-tolyl)-2-[(2,2,2-trifluoroacetyl)amino]propoxy]pyridine-2-carbonyl]amino]-1-piperidyl]butanoic acid metabolite formation. The data set is classed as ADME, cell-based, Hepatocyte.
Data set [6] can be described thus: Drug metabolism in dog whole blood assessed as (3R)-3-(hydroxymethyl)-4-oxo-4-[(3S)-3-[[5-[(1R,2S)-1-(p-tolyl)-2-[(2,2,2-trifluoroacetyl)amino]propoxy]pyridine-2-carbonyl]amino]-1-piperidyl]butanoic acid metabolite formation. It counts as ADME, tissue-based, Canis lupus familiaris.
Data set [7] in a line: Drug metabolism in dog hepatocytes assessed as (3R)-3-(hydroxymethyl)-4-oxo-4-[(3S)-3-[[5-[(1R,2S)-1-(p-tolyl)-2-[(2,2,2-trifluoroacetyl)amino]propoxy]pyridine-2-carbonyl]amino]-1-piperidyl]butanoic acid metabolite formation. It counts as ADME, cell-based, Canis lupus familiaris, Hepatocyte.
Data set [8] in a line: Drug metabolism in pig whole blood assessed as (3R)-3-(hydroxymethyl)-4-oxo-4-[(3S)-3-[[5-[(1R,2S)-1-(p-tolyl)-2-[(2,2,2-trifluoroacetyl)amino]propoxy]pyridine-2-carbonyl]amino]-1-piperidyl]butanoic acid metabolite formation. The data set is classed as ADME, tissue-based, Sus scrofa.
The nature of data set [9]: Drug metabolism in pig hepatocytes assessed as (3R)-3-(hydroxymethyl)-4-oxo-4-[(3S)-3-[[5-[(1R,2S)-1-(p-tolyl)-2-[(2,2,2-trifluoroacetyl)amino]propoxy]pyridine-2-carbonyl]amino]-1-piperidyl]butanoic acid metabolite formation. The data set is classed as ADME, cell-based, Sus scrofa, Hepatocyte.
Data set [10] is described as follows: Drug metabolism in rat whole blood assessed as (3R)-3-(hydroxymethyl)-4-oxo-4-[(3S)-3-[[5-[(1R,2S)-1-(p-tolyl)-2-[(2,2,2-trifluoroacetyl)amino]propoxy]pyridine-2-carbonyl]amino]-1-piperidyl]butanoic acid metabolite formation. It counts as ADME, tissue-based.
Data set [11] can be described thus: Drug metabolism in rat hepatocytes assessed as (3R)-3-(hydroxymethyl)-4-oxo-4-[(3S)-3-[[5-[(1R,2S)-1-(p-tolyl)-2-[(2,2,2-trifluoroacetyl)amino]propoxy]pyridine-2-carbonyl]amino]-1-piperidyl]butanoic acid metabolite formation. The data set is classed as ADME, cell-based, Hepatocyte.
Data set [12] in a line: Chemical stability assessed as parent compound remaining at pH 5.5 and 37 degreeC measured after 16 hrs. The data set is classed as physicochemical. The conditions noted are these: buffer, read-out: Stabilty.
Data set [13] can be described thus: Chemical stability assessed as parent compound remaining at pH 7 and 37 degreeC measured after 16 hrs. The following applies: buffer, read-out: Stabilty. It counts as physicochemical.
Data set [14] can be described thus: Photostability of the compound. It counts as physicochemical.
Data set [15] in a line: Hepatic clearance in iv dosed rat. The data set is classed as ADME, organism-based. The conditions noted are these: in vivo.
Data set [16] is filed under the species Homo sapiens. Description: Selectivity ratio for agonist activity at mineralocorticoid receptor (unknown origin) to agonist activity at glucocorticoid receptor (unknown origin).
The species entered for data set [17] is Homo sapiens. Description: Selectivity ratio for agonist activity at androgen receptor (unknown origin) to agonist activity at glucocorticoid receptor (unknown origin).
The species named for data set [18] is Homo sapiens. Description: Selectivity ratio for agonist activity at progesterone receptor (unknown origin) to agonist activity at glucocorticoid receptor (unknown origin).
The target of data set [19] is Voltage-gated inwardly rectifying potassium channel KCNH2 (Homo sapiens, UniProt Q12809). The experiment in a line: Inhibition of human ERG.
A further data set deals with Cytochrome P450. The experiment in a line: Inhibition of CYP450 (unknown origin). It counts as protein assay. The following applies: human.

Molecules are shown by their SMILES. Bounds are passed on as bounds.

Chain of Voltage-gated inwardly rectifying potassium channel KCNH2 (Q12809 whole entry): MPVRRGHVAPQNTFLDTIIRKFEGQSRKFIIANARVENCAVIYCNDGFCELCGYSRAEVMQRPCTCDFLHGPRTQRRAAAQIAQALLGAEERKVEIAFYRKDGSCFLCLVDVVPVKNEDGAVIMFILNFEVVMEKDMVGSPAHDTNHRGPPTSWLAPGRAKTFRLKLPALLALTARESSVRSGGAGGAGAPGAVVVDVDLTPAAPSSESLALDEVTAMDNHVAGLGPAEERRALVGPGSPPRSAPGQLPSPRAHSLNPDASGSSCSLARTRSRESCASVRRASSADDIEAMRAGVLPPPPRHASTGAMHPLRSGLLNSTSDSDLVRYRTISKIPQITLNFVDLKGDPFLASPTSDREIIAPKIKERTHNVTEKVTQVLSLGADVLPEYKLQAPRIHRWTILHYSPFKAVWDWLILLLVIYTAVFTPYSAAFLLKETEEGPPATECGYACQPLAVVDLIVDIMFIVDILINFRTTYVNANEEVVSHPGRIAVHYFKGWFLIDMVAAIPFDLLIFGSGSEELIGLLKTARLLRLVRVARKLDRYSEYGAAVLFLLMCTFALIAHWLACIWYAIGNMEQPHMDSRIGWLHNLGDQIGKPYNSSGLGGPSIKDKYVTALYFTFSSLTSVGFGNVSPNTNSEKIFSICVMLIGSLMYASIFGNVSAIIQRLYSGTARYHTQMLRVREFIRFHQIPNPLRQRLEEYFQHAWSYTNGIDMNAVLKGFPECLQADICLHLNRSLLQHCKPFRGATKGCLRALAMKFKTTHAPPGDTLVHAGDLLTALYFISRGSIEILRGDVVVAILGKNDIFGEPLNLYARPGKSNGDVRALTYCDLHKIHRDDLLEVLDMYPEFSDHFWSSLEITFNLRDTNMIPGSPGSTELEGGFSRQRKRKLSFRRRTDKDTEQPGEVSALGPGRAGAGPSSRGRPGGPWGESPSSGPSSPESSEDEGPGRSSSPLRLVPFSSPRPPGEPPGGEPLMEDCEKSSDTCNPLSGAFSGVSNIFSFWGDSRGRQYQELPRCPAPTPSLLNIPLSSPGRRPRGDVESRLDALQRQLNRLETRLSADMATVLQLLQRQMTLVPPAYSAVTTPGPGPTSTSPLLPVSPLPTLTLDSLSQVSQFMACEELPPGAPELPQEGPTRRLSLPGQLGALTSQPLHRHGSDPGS

With `Cc1ccc([C@@H](Oc2ccc(C(=O)N[C@@H]3CCCN(C(=O)[C@H]4COC(=O)C4)C3)nc2)[C@H](C)NC(=O)C(F)(F)F)cc1`, the half-life in [1] is below 0.167 h; in data set [2], above 6 h.

Turning to `C[C@H](NC(=O)[C@@H]1CCCO1)[C@H](Oc1ccc(C(=O)O[C@H]2CCCN(C(=O)[C@H]3COC(=O)C3)C2)cc1)c1ccc(C2CC2)cc1`, at Glucocorticoid receptor, the IC50 is 22 nM.

Turning to `Cc1ccc([C@@H](Oc2ccc(C(=O)N[C@H]3CCCN(C(=O)[C@H]4COC(=O)C4)C3)cc2)[C@H](C)NC(=O)C(F)(F)F)cc1`, the concentration for half-maximal inhibition (IC50) at Glucocorticoid receptor turned out to be 79 nM.

In the case of `Cc1ccc([C@@H](Oc2ccc(C(=O)N[C@H]3CCCN(C(=O)[C@H]4CCC(=O)O4)C3)nc2)[C@H](C)NC(=O)C(F)(F)F)cc1`, the half-life in data set [1] was above 2 h; in data set [2], above 6 h.

In [1], `Cc1ccc([C@@H](Oc2ccc(C(=O)N[C@@H]3CCCN(C(=O)[C@@H]4COC(=O)C4)C3)nc2)[C@H](C)NC(=O)C(F)(F)F)cc1` showed a half-life of 0.283 h.

For `Cc1ccc([C@@H](Oc2ccc(C(=O)N[C@H]3CCCN(C(=O)[C@@H]4COC(=O)C4)C3)nc2)[C@H](C)NC(=O)C(F)(F)F)cc1`, the half-life in data set [1] is 1.7 h; in [2], above 6 h.

With `C[C@H](NC(=O)C(F)(F)F)[C@H](Oc1ccc(C(=O)O[C@H]2CCCN(C(=O)[C@H]3COC(=O)C3)C2)cc1)c1ccc(C2CC2)cc1`, the IC50 on Glucocorticoid receptor worked out at 1 nM.

For the compound `C[C@H](NC(=O)[C@H]1CCCO1)[C@H](Oc1ccc(C(=O)O[C@H]2CCCN(C(=O)[C@@H](CO)CC(=O)O)C2)cc1)c1ccc(C2CC2)cc1`, in data set [3], the fold change (FC) was above 100.

For `Cc1ccc([C@@H](Oc2ccc(C(=O)N[C@@H]3CCCN(C(=O)[C@@H]4CCC(=O)O4)C3)nc2)[C@H](C)NC(=O)C(F)(F)F)cc1`, the half-life in data set [1] worked out at 0.733 h.

`Cc1ccc([C@@H](Oc2ccc(C(=O)N[C@H]3CCCN(C(=O)[C@@H]4CCC(=O)O4)C3)nc2)[C@H](C)NC(=O)C(F)(F)F)cc1` came in with a half-life in data set [1] of 1.38 h.

As for `Cc1ccc([C@@H](Oc2ccc3c(cnn3-c3ccc(F)cc3)c2)[C@H](C)NC(=O)C(F)(F)F)cc1`, on Glucocorticoid receptor, the 50% inhibitory concentration (IC50) amounted to 2 nM.

`Cc1ccc([C@@H](Oc2ccc(C(=O)N[C@H]3CCCN(C(=O)[C@H]4COC(=O)C4)C3)nc2)[C@H](C)NC(=O)C(F)(F)F)cc1`: the results for the half-life in data set [1] and in [2] were below 0.167 h and above 6 h, respectively. The Drug metabolism entry in data set [4], in [5], in data set [6], in [7], in [8] and in data set [9] was “Metabolite_Detected” in each case. Moreover, the Drug metabolism result in data set [10] and in [11] was “Metabolite_Detected” each time. Further, the remaining at 16 h in data set [12] was above 95%; in [13] it was 82%. For the same compound, the Stabilty entry in [14] is on record as “Stable”.

In the case of `Cc1ccc([C@@H](Oc2ccc(C(=O)Nc3ccccc3)nc2)[C@H](C)NC(=O)C(F)(F)F)cc1`, the IC50 at Glucocorticoid receptor was determined as 26 nM.

Take `Cc1ccc([C@@H](Oc2ccc(C(=O)N[C@@H]3CCCN(C(=O)[C@H]4CCC(=O)O4)C3)nc2)[C@H](C)NC(=O)C(F)(F)F)cc1`: the half-life in data set [1] came to 0.85 h.

Turning to `C[C@H](NC(=O)[C@H]1CCCO1)[C@H](Oc1ccc(C(=O)O[C@H]2CCCN(C(=O)[C@H]3COC(=O)C3)C2)cc1)c1ccc(C2CC2)cc1`, the IC50 at Glucocorticoid receptor came out at 2 nM. The compound also displayed a CLH in data set [15] of 500 mL/min/kg. Further, the Selectivity ratio in the data set listed under Homo sapiens [16], in the data set listed under Homo sapiens [17] and in the data set filed under Homo sapiens [18] was above 100 in each case. Moreover, the “inhibition (INH)” value (in data set [19]; with Cytochrome P450) was “Not Active” each time.

Source of the values: ChEMBL document CHEMBL4725307, “Topical 'dual-soft' glucocorticoid receptor agonist for dermatology” (Bioorg Med Chem Lett, 2020).
